Laboratory results from paper PMC9061853, “Luminescent bis(benzo[d]thiazolyl)quinoxaline: facile synthesis, nucleic acid and protein BSA interaction, live-cell imaging, biopharmaceutical research and cancer theranostic application” (RSC Advances, 2019).

Legend:
[1] = Buffer stability (LC-MS/MS); format: physicochemical; conditions: pH 7.4 buffer, read-out: % Remaining in 120 min
Method: LC-MS/MS methods were developed for compound 7g to quantify the drug concentration and in vitro study (i.e. buffer solubility, buffer stability, metabolic stability, and permeability) in a systemic manner (Table 4). Chromatographic elution conditions were set with the use of 5 mM ammonium formate containing 0.1% formic acid and acetonitrile containing 0.1% formic acid with C8, Kromasil, and 4.6 × […] as a stationary phase (Fig. S5a and b ^†). […] For the data analysis, % accuracy of compound 7g was calculated and it was soluble up to 25 μM (Fig. 3, eqn (7) ^†).
The in vitro solubility and stability of 7g were evaluated in pH 7.4 buffer. The buffer solubility and stability studies were conducted at six different concentrations ranging from 3.13 to 100 μM. For the data analysis, % stability of compound 7g at 120 min was calculated with respect to 0 min time point samples and it was stable up to 2 hours in pH 7.4 buffers. Data analysis was performed through the eqn (8) ^† and was tabulated (Table 4). Compound 7g found to be stable up to 2 hours with % remaining of 71% in pH 7.4.

[2] = Stability in water, GSH and MTT condition by UV-vis spectroscopy; format: physicochemical
Method: The stability of compounds in water, GSH, and MTT condition (10% DMSO in PBS buffer) was studied. Water is a key factor because it widens the application in the biological field. […] The stability of complex 7e in water (pH 7.2) and GSH were investigated by UV-vis spectroscopy over a period of 20 h of time (Fig. S2a and b ^†).

CT-DNA = assay: Ethidium bromide displacement assay (fluorescence); format: binding
Method: DNA is one of the key target for cancer therapy. The drug molecules bind with the DNA by three major modes (i) electrostatic interactions with the DNA double helix (ii) binding to grooves of DNA (iii) intercalation between the base pairs of DNA.[25] The titration in UV was performed by increasing concentration of DNA from 10–60 μM into a fixed drug concentration (20 μM). The intra-ligand absorption bands around 290–350 nm (π–π* transition) were used in observation of the interaction of DNA and compound 7e (Fig. S3a ^†). There was a hypochromic shift with a slight blue shift in the wavelength of compound 7e was observed which concluded that complex 7e bind to DNA through intercalative binding mode.[26] […] Ethidium bromide, a nonspecific intercalator, gives a strong fluorescence while intercalating DNA base pairs. This enhanced fluorescence can be quenched by another chemical moiety which can competitively replace EtBr and binds to the same site.[27] […] The original fluorescence intensity of EtBr–DNA complex is rapidly quenched by increasing the concentration of compound 7e (Fig. S3c ^†). […]
EtBr displacement is periodically used as a diagnostic approach to determine the capability of compounds to bind with DNA [4]. EtBr emits intense fluorescence when it intercalates with CT-DNA, whereas in its free form in buffer (5 mM Tris-HCl/50mM NaCl buffer, pH 7.4) there is no apparent florescence emission. […] The binding capacity of drug complex with CT-DNA was estimated by quenching of fluorescence intensity. […]
Κapp ×[Complex]50 = ΚEtBr ×[EtBr ](3) where Kapp is the apparent binding constant of the complex, [Complex]50 is the concentration of the complex at 50% fluorescence quenching of DNA-bound ethidium bromide, KEB is the binding constant of the EB (KEtBr = 1.0 x 107 M-1), and [EB] is the concentration of ethidium bromide (8 μM). The Stern-Volmer quenching constant (K SV) has been determined quantitatively by using Stern-Volmer equation. Stern-Volmer plots of I0/I vs. [complex] were made using the corrected fluorescence data taking into account the effect of dilution. […]

`COc1ccc2nc(COc3ccccc3-c3nc4ccccc4s3)c(COc3ccccc3-c3nc4ccccc4s3)nc2c1` [Compound 7g, 2,2'-((((6-methoxyquinoxaline-2,3-diyl)bis(methylene))bis(oxy))bis(2,1-phenylene))bis(benzo[d]thiazole)] showed a remaining at 2 h, 3.13 μM ([1]; 3.13 μM) of 59%, a remaining at 2 h, 6.25 μM ([1]; 6.25 μM) of 68% and a remaining at 2 h, 12.5 μM ([1]; 12.50 μM) of 81%. For the same compound, the remaining at 2 h, 25 μM ([1]; 25.00 μM) was 110%, the remaining at 2 h, 50 μM ([1]; 50.00 μM) was 110% and the remaining at 2 h, 100 μM ([1]; 100.00 μM) was 71%.
With `Clc1cc2nc(COc3ccccc3-c3nc4ccccc4s3)c(COc3ccccc3-c3nc4ccccc4s3)nc2cc1Cl` [Compound 7e] the “stability in MTT condition” value ([2]; 10% DMSO in PBS buffer, 18 h) was “insignificant change of absorbance”, the “stability in GSH” value ([2]; GSH, 20 h) was “no changes in absorbance” and the stability in water ([2]; water pH 7.2, 20 h) was “no changes in absorbance”. The “K sv, Stern–Volmer quenching constant” value (CT-DNA; EtBr–DNA fluorescence quenching) was 5500 M⁻¹, the “[7e]50, concentration at 50% fluorescence quenching of DNA-bound ethidium bromide” value (CT-DNA; [DNA] = 120 μM, [EtBr] = 8 μM, Tris HCl/NaCl buffer pH 7.2) was 140 µM and the “K app, apparent DNA binding constant” value (CT-DNA; competitive displacement of EtBr, fluorescence) was 570000 M⁻¹.
